Patent US20070148159A1, “Use of crotoxin as an analgesic - CIP” (priority 2005, published 2007)
Structures can show the parent of a compound that is named as a salt.

Columns and labels:
mice = type: in vivo, mouse; conditions: for inhibition of the activity of Crotoxin: summary statement on antagonist studies
[1] = type: in vivo; conditions: hot-plate model; test end point 180 minutes
[2] = cited from earlier work

| Structure (SMILES) | inhibition of the activity of Crotoxin (mice) | time of maximal effect on hot-plate response [1] [min] | analgesic potency relative to morphine ([2]; halved again when given orally rather than parenterally) | duration of activity ([2]; in vivo) [h] | onset of activity ([2]; in vivo) [min] | effect on Crotoxin-induced analgesia, hotplate test (mice; Atropine 0.25-1 mg/kg, Naloxone 1.25-5 mg/kg) |
| --- | --- | --- | --- | --- | --- | --- |
| CN1[C@@H]2CC[C@H]1C[C@@H](OC(=O)C(CO)c1ccccc1)C2 (stereo partly shown) [Atropine] | failed to inhibit | – | – | – | – | – |
| CCOC(=O)C1(c2ccccc2)CCN(C)CC1 [Dolantin, Meperidine hydrochloride] | – | 30 | one-tenth as potent an analgesic as morphine | 2 to 4 | 10 to 45 | – |
| C=CCN1CC[C@]23c4c5ccc(O)c4O[C@H]2C(=O)CC[C@@]3(O)[C@H]1C5 [Naloxone] | failed to inhibit | – | – | – | – | no effect |
